Columns and labels:
Experiment in all cases: relative viability (nuclei count vs DMSO), 5 days (fraction); higher = more cells survive
Bexarotene + Pictilisib = compound: C=C(c1ccc(C(=O)O)cc1)c1cc2c(cc1C)C(C)(C)CCC2(C)C [Bexarotene] + CS(=O)(=O)N1CCN(Cc2cc3nc(-c4cccc5[nH]ncc45)nc(N4CCOCC4)c3s2)CC1 [Pictilisib] (partner 1 µM)
How it was run: (§1)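 Lung cancer cell lines were pin-tool dosed in 1536-well plates on the day after seeding, with either a lone drug or a fixed anchor-drug dose plus five library-drug doses (not always all listed) in √10 steps. Nuclei were counted on 4× images after 5 days. Relative viability is the ratio of treated-well to vehicle-well nuclei counts, with each value a median of duplicate plates.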

Bexarotene + Crizotinib = compound: C=C(c1ccc(C(=O)O)cc1)c1cc2c(cc1C)C(C)(C)CCC2(C)C [Bexarotene] + C[C@@H](Oc1cc(-c2cnn(C3CCNCC3)c2)cnc1N)c1c(Cl)ccc(F)c1Cl [Crizotinib] (partner 1 µM)
How it was run: as §1

Bexarotene + Alpelisib = compound: C=C(c1ccc(C(=O)O)cc1)c1cc2c(cc1C)C(C)(C)CCC2(C)C [Bexarotene] + Cc1nc(NC(=O)N2CCC[C@H]2C(N)=O)sc1-c1ccnc(C(C)(C)C(F)(F)F)c1 [Alpelisib] (partner 2 µM)
How it was run: as §1

Bexarotene + Lapatinib = compound: C=C(c1ccc(C(=O)O)cc1)c1cc2c(cc1C)C(C)(C)CCC2(C)C [Bexarotene] + CS(=O)(=O)CCNCc1ccc(-c2ccc3ncnc(Nc4ccc(OCc5cccc(F)c5)c(Cl)c4)c3c2)o1 [Lapatinib] (partner 2 µM)
How it was run: as §1

Bexarotene + Bortezomib = compound: C=C(c1ccc(C(=O)O)cc1)c1cc2c(cc1C)C(C)(C)CCC2(C)C [Bexarotene] + CC(C)C[C@H](NC(=O)[C@H](Cc1ccccc1)NC(=O)c1cnccn1)B(O)O [Bortezomib] (partner 0.002 µM)
How it was run: as §1

Bexarotene + Olaparib = compound: C=C(c1ccc(C(=O)O)cc1)c1cc2c(cc1C)C(C)(C)CCC2(C)C [Bexarotene] + O=C(c1cc(Cc2n[nH]c(=O)c3ccccc23)ccc1F)N1CCN(C(=O)C2CC2)CC1 [Olaparib] (partner 8 µM)
How it was run: as §1

Bexarotene + Navitoclax = compound: C=C(c1ccc(C(=O)O)cc1)c1cc2c(cc1C)C(C)(C)CCC2(C)C [Bexarotene] + CC1(C)CCC(c2ccc(Cl)cc2)=C(CN2CCN(c3ccc(C(=O)NS(=O)(=O)c4ccc(N[C@H](CCN5CCOCC5)CSc5ccccc5)c(S(=O)(=O)C(F)(F)F)c4)cc3)CC2)C1 [Navitoclax] (partner 0.5 µM)
How it was run: as §1

Bexarotene + Foretinib = compound: C=C(c1ccc(C(=O)O)cc1)c1cc2c(cc1C)C(C)(C)CCC2(C)C [Bexarotene] + COc1cc2c(Oc3ccc(NC(=O)C4(C(=O)Nc5ccc(F)cc5)CC4)cc3F)ccnc2cc1OCCCN1CCOCC1 [Foretinib] (partner 0.25 µM)
How it was run: as §1

Bexarotene + Linsitinib = compound: C=C(c1ccc(C(=O)O)cc1)c1cc2c(cc1C)C(C)(C)CCC2(C)C [Bexarotene] + C[C@]1(O)C[C@@H](c2nc(-c3ccc4ccc(-c5ccccc5)nc4c3)c3c(N)nccn32)C1 [Linsitinib] (partner 1 µM)
How it was run: as §1

Bexarotene = compound: C=C(c1ccc(C(=O)O)cc1)c1cc2c(cc1C)C(C)(C)CCC2(C)C [Bexarotene]
How it was run: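 After an overnight hold at 37 °C, lung cancer cell lines in 1536-well plates were pinned with five library-drug doses (not always all listed), each √10 from the next, on vehicle-anchored plates. The cells stayed 5 days without fresh medium, then a one-step fix, permeabilisation and Hoechst stain preceded 4× imaging and MetaXpress nuclear counts. A plate passed only with control CV under 25% and at least one doubling. Viability is the median, over plates, of treated-well nuclei relative to vehicle-well nuclei.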

Bexarotene + Luminespib = compound: C=C(c1ccc(C(=O)O)cc1)c1cc2c(cc1C)C(C)(C)CCC2(C)C [Bexarotene] + CCNC(=O)c1noc(-c2cc(C(C)C)c(O)cc2O)c1-c1ccc(CN2CCOCC2)cc1 [Luminespib] (partner 0.01 µM)
How it was run: as §1

Bexarotene + Dasatinib = compound: C=C(c1ccc(C(=O)O)cc1)c1cc2c(cc1C)C(C)(C)CCC2(C)C [Bexarotene] + Cc1nc(Nc2ncc(C(=O)Nc3c(C)cccc3Cl)s2)cc(N2CCN(CCO)CC2)n1 [Dasatinib] (partner 0.075 µM)
How it was run: as §1

Bexarotene + Phenformin = compound: C=C(c1ccc(C(=O)O)cc1)c1cc2c(cc1C)C(C)(C)CCC2(C)C [Bexarotene] + N=C(N)NC(=N)NCCc1ccccc1 [Phenformin] (partner 250 µM)
How it was run: as §1

Bexarotene + OSI-027 = compound: C=C(c1ccc(C(=O)O)cc1)c1cc2c(cc1C)C(C)(C)CCC2(C)C [Bexarotene] + COc1cccc2cc(-c3nc([C@H]4CC[C@H](C(=O)O)CC4)n4ncnc(N)c34)[nH]c12 [OSI-027] (partner 0.5 µM)
How it was run: as §1

Bexarotene + Tozasertib = compound: C=C(c1ccc(C(=O)O)cc1)c1cc2c(cc1C)C(C)(C)CCC2(C)C [Bexarotene] + Cc1cc(Nc2cc(N3CCN(C)CC3)nc(Sc3ccc(NC(=O)C4CC4)cc3)n2)n[nH]1 [Tozasertib] (partner 0.1 µM)
How it was run: as §1

NCI-H1299 gave a relative viability (Bexarotene + Pictilisib; first compound 0.08 µM) of 0.954, a relative viability (Bexarotene + Pictilisib; first compound 0.253 µM) of 0.893 and a relative viability (Bexarotene + Pictilisib; first compound 0.8 µM) of 0.661. The relative viability (Bexarotene + Pictilisib; first compound 2.53 µM) was 0.733, the relative viability (Bexarotene + Pictilisib; first compound 8 µM) was 0.596 and the relative viability (Bexarotene + Crizotinib; first compound 0.08 µM) was 1. It also gave a relative viability (Bexarotene + Crizotinib; first compound 0.253 µM) of 1.03, a relative viability (Bexarotene + Crizotinib; first compound 0.8 µM) of 1.03 and a relative viability (Bexarotene + Crizotinib; first compound 2.53 µM) of 0.964. The relative viability (Bexarotene + Crizotinib; first compound 8 µM) was 1.02, the relative viability (Bexarotene + Alpelisib; first compound 0.08 µM) was 1.05 and the relative viability (Bexarotene + Alpelisib; first compound 0.253 µM) was 1.13. The relative viability (Bexarotene + Alpelisib; first compound 0.8 µM) was 1.12, the relative viability (Bexarotene + Alpelisib; first compound 2.53 µM) was 1.05 and the relative viability (Bexarotene + Alpelisib; first compound 8 µM) was 1.05. It also gave a relative viability (Bexarotene + Lapatinib; first compound 0.08 µM) of 1.02, a relative viability (Bexarotene + Lapatinib; first compound 0.253 µM) of 1.03 and a relative viability (Bexarotene + Lapatinib; first compound 0.8 µM) of 1.04. It also gave a relative viability (Bexarotene + Lapatinib; first compound 2.53 µM) of 0.917, a relative viability (Bexarotene + Lapatinib; first compound 8 µM) of 0.964 and a relative viability (Bexarotene + Bortezomib; first compound 0.08 µM) of 1.07. For the same cell line, the relative viability (Bexarotene + Bortezomib; first compound 0.253 µM) was 1.1, the relative viability (Bexarotene + Bortezomib; first compound 0.8 µM) was 1.04 and the relative viability (Bexarotene + Bortezomib; first compound 2.53 µM) was 1.02. For the same cell line, the relative viability (Bexarotene + Bortezomib; first compound 8 µM) was 1.06, the relative viability (Bexarotene + Olaparib; first compound 0.08 µM) was 0.951 and the relative viability (Bexarotene + Olaparib; first compound 0.253 µM) was 0.967. It also gave a relative viability (Bexarotene + Olaparib; first compound 0.8 µM) of 0.917, a relative viability (Bexarotene + Olaparib; first compound 2.53 µM) of 0.882 and a relative viability (Bexarotene + Olaparib; first compound 8 µM) of 0.895. For the same cell line, the relative viability (Bexarotene + Navitoclax; first compound 0.08 µM) was 1.05, the relative viability (Bexarotene + Navitoclax; first compound 0.253 µM) was 1.07 and the relative viability (Bexarotene + Navitoclax; first compound 0.8 µM) was 1.06. For the same cell line, the relative viability (Bexarotene + Navitoclax; first compound 2.53 µM) was 1.09, the relative viability (Bexarotene + Navitoclax; first compound 8 µM) was 1.04 and the relative viability (Bexarotene + Foretinib; first compound 0.08 µM) was 1.06. The relative viability (Bexarotene + Foretinib; first compound 0.253 µM) was 1.18, the relative viability (Bexarotene + Foretinib; first compound 0.8 µM) was 1.05 and the relative viability (Bexarotene + Foretinib; first compound 2.53 µM) was 1.1. It also gave a relative viability (Bexarotene + Foretinib; first compound 8 µM) of 1.08, a relative viability (Bexarotene + Linsitinib; first compound 0.08 µM) of 1.02 and a relative viability (Bexarotene + Linsitinib; first compound 0.253 µM) of 1.01. It also gave a relative viability (Bexarotene + Linsitinib; first compound 0.8 µM) of 0.991, a relative viability (Bexarotene + Linsitinib; first compound 2.53 µM) of 1.02 and a relative viability (Bexarotene + Linsitinib; first compound 8 µM) of 0.94. For the same cell line, the relative viability (Bexarotene; 0.08 µM) was 1.01, the relative viability (Bexarotene; 0.253 µM) was 1.12 and the relative viability (Bexarotene; 0.8 µM) was 1.06. For the same cell line, the relative viability (Bexarotene; 2.53 µM) was 1.01 and the relative viability (Bexarotene; 8 µM) was 1.02.
In the case of NCI-H1623, the relative viability (Bexarotene + Luminespib; first compound 0.08 µM) is reported as 0.459, the relative viability (Bexarotene + Luminespib; first compound 0.253 µM) is reported as 0.476 and the relative viability (Bexarotene + Luminespib; first compound 0.8 µM) is reported as 0.481. For the same cell line, the relative viability (Bexarotene + Luminespib; first compound 2.53 µM) was 0.441, the relative viability (Bexarotene + Luminespib; first compound 8 µM) was 0.543 and the relative viability (Bexarotene + Dasatinib; first compound 0.08 µM) was 0.587. It also gave a relative viability (Bexarotene + Dasatinib; first compound 0.253 µM) of 0.501, a relative viability (Bexarotene + Dasatinib; first compound 0.8 µM) of 0.568 and a relative viability (Bexarotene + Dasatinib; first compound 2.53 µM) of 0.579. For the same cell line, the relative viability (Bexarotene + Dasatinib; first compound 8 µM) was 0.531, the relative viability (Bexarotene + Phenformin; first compound 0.08 µM) was 0.661 and the relative viability (Bexarotene + Phenformin; first compound 0.253 µM) was 0.598. The relative viability (Bexarotene + Phenformin; first compound 0.8 µM) was 0.528, the relative viability (Bexarotene + Phenformin; first compound 2.53 µM) was 0.612 and the relative viability (Bexarotene + Phenformin; first compound 8 µM) was 0.504. The relative viability (Bexarotene + OSI-027; first compound 0.08 µM) was 0.439, the relative viability (Bexarotene + OSI-027; first compound 0.253 µM) was 0.441 and the relative viability (Bexarotene + OSI-027; first compound 0.8 µM) was 0.363. It also gave a relative viability (Bexarotene + OSI-027; first compound 2.53 µM) of 0.407, a relative viability (Bexarotene + OSI-027; first compound 8 µM) of 0.334 and a relative viability (Bexarotene + Foretinib; first compound 0.08 µM) of 0.836. For the same cell line, the relative viability (Bexarotene + Foretinib; first compound 0.253 µM) was 0.813, the relative viability (Bexarotene + Foretinib; first compound 0.8 µM) was 0.805 and the relative viability (Bexarotene + Foretinib; first compound 2.53 µM) was 0.848. For the same cell line, the relative viability (Bexarotene + Foretinib; first compound 8 µM) was 0.773, the relative viability (Bexarotene + Tozasertib; first compound 0.08 µM) was 0.452 and the relative viability (Bexarotene + Tozasertib; first compound 0.253 µM) was 0.431. For the same cell line, the relative viability (Bexarotene + Tozasertib; first compound 0.8 µM) was 0.333, the relative viability (Bexarotene + Tozasertib; first compound 2.53 µM) was 0.424 and the relative viability (Bexarotene + Tozasertib; first compound 8 µM) was 0.416. The relative viability (Bexarotene; 0.08 µM) was 0.751, the relative viability (Bexarotene; 0.253 µM) was 0.849 and the relative viability (Bexarotene; 0.8 µM) was 0.815. The relative viability (Bexarotene; 2.53 µM) was 0.854 and the relative viability (Bexarotene; 8 µM) was 0.806.
